Reference: ChEMBL document CHEMBL3751713, “Synthesis and Biological Activity of Mono- and Di-N-acylated Aminoglycosides” (ACS Med Chem Lett, 2015)
Values after ≈ are worked out from the molar mass of the structure shown.

Legend:
Bacillus anthracis [1] = assay: Antimicrobial activity against Gram-positive Bacillus anthracis str. Sterne after 16 to 24 hrs by micro-dilution method; format: functional
Bacillus cereus = assay: Antimicrobial activity against Gram-positive Bacillus cereus ATCC 17788 after 16 to 24 hrs by micro-dilution method; format: functional
Bacillus subtilis = assay: Antimicrobial activity against Gram-positive Bacillus subtilis 168 after 16 to 24 hrs by micro-dilution method; format: functional
Listeria monocytogenes = assay: Antimicrobial activity against Gram-positive Listeria monocytogenes ATCC 19115 after 16 to 24 hrs by micro-dilution method; format: functional
Staphylococcus aureus [2] = assay: Antimicrobial activity against Gram-positive Staphylococcus aureus ATCC 29213 after 16 to 24 hrs by micro-dilution method; format: functional
Staphylococcus aureus [3] = assay: Antimicrobial activity against Gram-positive methicillin-resistant Staphylococcus aureus 1 after 16 to 24 hrs by micro-dilution method; format: functional
Staphylococcus aureus [4] = assay: Antimicrobial activity against Gram-positive methicillin-resistant Staphylococcus aureus 2 after 16 to 24 hrs by micro-dilution method; format: functional
Haemophilus influenzae = assay: Antimicrobial activity against Gram-negative Haemophilus influenzae ATCC 51907 after 16 to 24 hrs by micro-dilution method; format: functional
Pseudomonas aeruginosa = assay: Antimicrobial activity against Gram-negative Pseudomonas aeruginosa PAO1 after 16 to 24 hrs by micro-dilution method; format: functional
[5] = system: Mycolicibacterium smegmatis; assay: Antimicrobial activity against Mycobacterium smegmatis MC2-155 after 16 to 24 hrs by micro-dilution method; format: functional; details: str. MC2 155
Bacillus anthracis [6] = assay: Potency index, ratio MIC of kanamycin to MIC of compound for Bacillus anthracis str. Sterne; format: functional
[7] = Drug metabolism assessed as Escherichia coli AAC(3)-IV mediated compound modification at 100 uM; format: ADME
[8] = Drug metabolism assessed as Staphylococcus aureus Bifunctional AAC(6')-1e/APH(2'')-1a mediated compound modification at 100 uM; format: ADME
[9] = Drug metabolism assessed as Mycobacterium tuberculosis Eis mediated compound modification at 100 uM; format: ADME
[10] = molecular target: T1, Aminoglycoside 3'-phosphotransferase (Escherichia coli, UniProt P00551); assay: Drug metabolism assessed as Escherichia coli APH(3')-Ia-mediated compound modification at 100 uM; format: ADME
T1 sequence (P00551 whole entry): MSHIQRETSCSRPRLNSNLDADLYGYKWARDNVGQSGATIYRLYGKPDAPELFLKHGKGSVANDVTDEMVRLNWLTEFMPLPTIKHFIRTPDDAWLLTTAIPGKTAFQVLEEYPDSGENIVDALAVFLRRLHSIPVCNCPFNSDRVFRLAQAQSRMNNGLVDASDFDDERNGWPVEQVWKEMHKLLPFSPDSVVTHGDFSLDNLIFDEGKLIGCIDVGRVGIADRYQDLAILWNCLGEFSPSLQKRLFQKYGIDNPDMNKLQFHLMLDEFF

Structure (SMILES) | MIC (Bacillus anthracis [1]) [µg/mL] | MIC (Bacillus cereus) [µg/mL] | MIC (Bacillus subtilis) [µg/mL] | MIC (Listeria monocytogenes) [µg/mL] | MIC (Staphylococcus aureus [2]) [µg/mL] | MIC (Staphylococcus aureus [3]) [µg/mL] | MIC (Staphylococcus aureus [4]) [µg/mL] | MIC (Haemophilus influenzae) [µg/mL] | MIC (Pseudomonas aeruginosa) [µg/mL] | MIC [5] [µg/mL] | Ratio (Bacillus anthracis [6]) | Drug metabolism [7] | Drug metabolism [8] | Drug metabolism [9] | Drug metabolism [10]
NCC(=O)NC[C@H]1O[C@H](O[C@H]2[C@H](O)[C@@H](O[C@H]3O[C@H](CO)[C@@H](O)[C@H](N)[C@H]3O)[C@H](N)C[C@@H]2N)[C@H](O)[C@@H](O)[C@@H]1O | 2 (≈ 3.69 µM) | 150 (≈ 277 µM) | > 150 | 150 (≈ 277 µM) | 16 (≈ 29.5 µM) | > 128 | > 128 | 150 (≈ 277 µM) | > 150 | > 128 | 64 | metabolite_detected | metabolite_detected | metabolite_detected | –
NC[C@H]1O[C@H](O[C@H]2[C@H](O)[C@@H](O[C@H]3O[C@H](CO)[C@@H](O)[C@H](N)[C@H]3O)[C@H](N)C[C@@H]2N)[C@H](O)[C@@H](O)[C@@H]1O [KANAMYCIN] | > 128 | 9.4 (≈ 19.4 µM) | > 150 | 4.7 (≈ 9.7 µM) | 0.5 (≈ 1.03 µM) | > 128 | > 128 | 9.4 (≈ 19.4 µM) | 37.5 (≈ 77.4 µM) | > 128 | – | – | – | – | –
NCC[C@H](O)C(=O)NC[C@H]1O[C@H](O[C@H]2[C@H](O)[C@@H](O[C@H]3O[C@H](CO)[C@@H](O)[C@H](N)[C@H]3O)[C@H](N)C[C@@H]2N)[C@H](O)[C@@H](O)[C@@H]1O | 4 (≈ 6.83 µM) | > 150 | > 150 | > 150 | 32 (≈ 54.6 µM) | 32 (≈ 54.6 µM) | > 128 | > 150 | 150 (≈ 256 µM) | 2 (≈ 3.42 µM) | 32 | metabolite_detected | metabolite_detected | metabolite_detected | –
NCC[C@H](O)C(=O)N[C@@H]1C[C@H](N)[C@@H](O[C@H]2O[C@H](CN)[C@@H](O)[C@H](O)[C@H]2O)[C@H](O)[C@H]1O[C@H]1O[C@H](CO)[C@@H](O)[C@H](N)[C@H]1O [AMIKACIN] | 16 (≈ 27.3 µM) | 9.4 (≈ 16.1 µM) | 37.5 (≈ 64 µM) | 9.4 (≈ 16.1 µM) | 1 (≈ 1.71 µM) | 0.5 (≈ 0.854 µM) | 32 (≈ 54.6 µM) | 37.5 (≈ 64 µM) | 2.3 (≈ 3.93 µM) | ≤ 0.25 | – | – | – | – | –
CCN[C@@H]1C[C@H](N)[C@@H](O[C@H]2OC(CNC(=O)CN)=CC[C@H]2N)[C@H](O)[C@H]1O[C@H]1OC[C@](C)(O)[C@H](NC)[C@H]1O | 0.5 (≈ 0.939 µM) | 75 (≈ 141 µM) | 37.5 (≈ 70.4 µM) | 18.8 (≈ 35.3 µM) | 0.5 (≈ 0.939 µM) | 32 (≈ 60.1 µM) | 1 (≈ 1.88 µM) | 37.5 (≈ 70.4 µM) | 37.5 (≈ 70.4 µM) | 1 (≈ 1.88 µM) | – | metabolite_detected | metabolite_detected | metabolite_detected | metabolite_notdetected
N[C@H]1[C@H](O)[C@H](O[C@@H]2[C@@H](O)[C@H](O[C@@H]3O[C@@H](CNC(=O)OCc4ccccc4)[C@H](O)C[C@@H]3N)[C@@H](N)C[C@H]2N)O[C@@H](CO)[C@@H]1O (stereo in doubt) | 64 (≈ 106 µM) | > 150 | > 150 | > 150 | 128 (≈ 213 µM) | > 128 | > 128 | 75 (≈ 125 µM) | > 150 | 16 (≈ 26.6 µM) | – | metabolite_detected | metabolite_detected | metabolite_detected | metabolite_notdetected
NCC(=O)NCC[C@H](O)C(=O)N[C@H]1C[C@@H](N)[C@H](O[C@H]2O[C@H](CNC(=O)CN)[C@@H](O)[C@H](O)[C@H]2O)[C@@H](O)[C@@H]1O[C@H]1O[C@H](CO)[C@@H](O)[C@H](N)[C@H]1O (stereo in doubt) | > 128 | > 150 | > 150 | > 150 | > 128 | > 128 | > 128 | > 150 | > 150 | 64 (≈ 91.5 µM) | – | metabolite_detected | metabolite_detected | metabolite_detected | metabolite_notdetected
